What was measured:
E. coli ESBL4 CTX-M-15 = test: Broth microdilution MIC, E. coli ESBL4; type: cell-based; settings: Escherichia coli, ESBL4CTXM15; fixed ceftazidime 4 μg/mL, CAMHB, 16-20 hours 37° C.; read-out: MIC of exemplary compounds in presence of fixed β-lactams, Fixed CAZ, E. coli ESBL4 CTX-M-15
How it was run: (§1)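 MIC of the test compound was read by eye after 16-20 h at 37° C, with inoculation following CLSI broth microdilution. The compound ran 32 to 0.25 μg/ml final in 2-fold steps in cation-adjusted Mueller Hinton broth, overlaid with a beta-lactam held static at 4 μg/ml final.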

S. aureus MSSA-7 PC-1 = test: Broth microdilution MIC, S. aureus MSSA-7; type: cell-based; settings: Staphylococcus aureus, fixed piperacillin 4 μg/mL, CAMHB, 16-20 hours 37° C., read-out: MIC of exemplary compounds in presence of fixed β-lactams, Fixed Pip, S. aureus MSSA-7 PC-1
K.P. 156319 KPC-3 = test: Broth microdilution MIC, K. pneumoniae 156319; type: cell-based; settings: Klebsiella pneumoniae; fixed meropenem 4 μg/mL, CAMHB, 16-20 hours 37° C.; read-out: MIC of exemplary compounds in presence of fixed β-lactams, Fixed Mero, K.P. 156319 KPC-3
p99 AmpC = molecular target: T1, p99 AmpC (Enterobacter cloacae, UniProt P05364); test: β-Lactamase inhibition, p99 AmpC (nitrocefin substrate); type: biochemical; settings: nitrocefin 100 μM, 486 nm, 15 min preincubation 37° C., PBS pH 7.4; read-out: IC50 AmpC (Class C)
T1 construct: made in house; host or cells: E. coli BL21 (DE3)
T1 sequence (P05364 21-381): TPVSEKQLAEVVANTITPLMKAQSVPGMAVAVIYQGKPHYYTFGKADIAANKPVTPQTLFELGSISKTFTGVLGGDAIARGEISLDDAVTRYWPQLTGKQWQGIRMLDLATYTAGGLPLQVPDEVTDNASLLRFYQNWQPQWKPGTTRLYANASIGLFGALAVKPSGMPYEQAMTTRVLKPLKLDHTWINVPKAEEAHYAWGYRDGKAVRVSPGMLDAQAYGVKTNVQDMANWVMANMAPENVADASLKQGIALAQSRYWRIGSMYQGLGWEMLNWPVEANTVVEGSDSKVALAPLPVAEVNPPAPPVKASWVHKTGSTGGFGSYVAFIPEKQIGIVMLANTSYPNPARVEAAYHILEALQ
Protocol: For SHV-5, Kpc-2, p99AmpC and OXA-1 β-lactamases, E. coli BL21 (DE3) bacterial cells carrying expression plasmids (expressed as native untagged proteins) for the individual β-lactamases were grown in 1 L of Superbroth (Teknova Inc. Hollister, Calif.) supplemented with 100 μg/ml kanamycin selection and 1×5052 (0.5% glycerol, 0.05% glucose and 0.2% α-lactose) at 35° C. for 18-20 hours. Cells were harvested by centrifugation (4,000×g, 4° C., 20 min), resuspended in 50 ml of 10 mM HEPES pH 7.5 ( 1/20 of the initial volume). The cells were lysed by sonication (5 pulses of 45 seconds) at 45 W on ice. The lysates were clarified by centrifugation at 10,000×g for 40 minutes at 4° C. Samples were diluted 5-fold in 50 mM sodium acetate pH 5.0, stored overnight at 4° C., after which they were centrifuged at 10,000×g for 30 minutes to clarify, and filtered through 0.45 µm filters. The samples were loaded onto a 5 ml Capto S sepharose cation exchange column (GE Healthcare) pre-equilibrated with 50 mM sodium acetate pH 5.0. The column was washed with 5 column volumes of 50 mM sodium acetate pH 5.0 to wash out unbound protein and a linear gradient of NaCl (0 to 500 mM) was used to elute the protein (over 16 CV) from the column. Fractions were assayed for β-lactamase activity using Centa (Calbiochem, Gibbstown, N.J.) or Nitrocefin (EMD Millipore chemicals, Darmstadt, Germany) as a reporter β-lactamase substrate for activity in the isolated fractions. Active fractions were pooled, concentrated and further purified by gel filtration chromatography on a Superdex 75 prep grade gel filtration column (GE Healthcare, Piscataway, N.J.) pre-equilibrated in 50 mM Hepes pH 7.5, 150 mM NaCl. Active fractions were pooled concentrated, quantitated by BCA protein determination (Thermo Scientific, Rockford, Ill.), dialyzed into PBS and frozen at −80° C. in 20% glycerol until use.
An equal volume of diluted enzyme stock was added, and the plates were incubated at 37° C. for 15 min. Nitrocefin was used as substrate for p99 AmpC, VIM-2 and OXA-1 and dispensed into each well at a final concentration of 100 μM. Absorbance at 486 nm was immediately monitored for 10 min using a Biotek Powerwave XS2 microplate spectrophotometer using the GEN5 software package (Biotek Instruments, Winooski Vt.). In an analogous fashion, imipenem was used as substrate for Kpc-2 and Cefotaxime was used for SHV-5, while changes in absorbance upon hydrolysis of the β-lactam ring were monitored at 300 nm and 260 nm respectively in UV-transparent 96-well microtiter assay plates. Maximum rates of hydrolysis were compared to those in control wells (without inhibitors), and percentages of enzyme inhibition were calculated for each concentration of inhibitor. The concentration of inhibitor needed to reduce the initial rate of hydrolysis of substrate by 50% (IC50) was calculated as the residual activity of β-lactamase at 486 nm using GraFit version 7 kinetics software package (Erithacus Software, Surrey, UK).
Using the methodology described above, examples of the current invention were evaluated for their ability to inhibit β-lactamase enzymes from all four Ambler classifications (A through D). […] NT=Not tested.

P. aerug. Ps296 VIM-2 = test: Broth microdilution MIC, P. aeruginosa Ps296; type: cell-based; settings: Pseudomonas aeruginosa; fixed meropenem 4 μg/mL, CAMHB, 16-20 hours 37° C.; read-out: MIC of exemplary compounds in presence of fixed β-lactams, Fixed Mero, P. aerug. Ps296 VIM-2
How it was run: as §1

K.P. A-1797 KPC-2 VIM-4 = test: Broth microdilution MIC, K. pneumoniae A-1797; type: cell-based; settings: Klebsiella pneumoniae; fixed meropenem 4 μg/mL, CAMHB, 16-20 hours 37° C.; read-out: MIC of exemplary compounds in presence of fixed β-lactams, Fixed Mero, K.P. A-1797 KPC-2 VIM-4
E. cl 144200 p99 AmpC = test: Broth microdilution MIC, E. cloacae 144200; type: cell-based; settings: Enterobacter cloacae; fixed ceftazidime 4 μg/mL, CAMHB, 16-20 hours 37° C.; read-out: MIC of exemplary compounds in presence of fixed β-lactams, Fixed CAZ, E. cl 144200 p99 AmpC
How it was run: as §1

| Compound | MIC (E. coli ESBL4 CTX-M-15) | MIC (S. aureus MSSA-7 PC-1) | MIC (K.P. 156319 KPC-3) | IC50 (p99 AmpC) | MIC (P. aerug. Ps296 VIM-2) | MIC (K.P. A-1797 KPC-2 VIM-4) | MIC (E. cl 144200 p99 AmpC) |
| --- | --- | --- | --- | --- | --- | --- | --- |
| NC1CN(C2CCC(CC(=O)N[C@H]3Cc4cccc(C(=O)O)c4OB3O)CC2)C1 (stereo partly drawn) [Example 35, (3R)-3-(2-(4-(3-aminoazetidin-1-yl)cyclohexyl)acetamido)-2-hydroxy-3,4-dihydro-2H-benzo[e][1,2]oxaborinine-8-carboxylic acid] | < 4 µg/mL | < 4 µg/mL | < 4 µg/mL | < 100 nM | < 4 µg/mL | 8 to 32 µg/mL | < 4 µg/mL |
| O=C(CC1CCC(NC2CNC2)CC1)N[C@H]1Cc2cccc(C(=O)O)c2OB1O (stereo partly drawn) [Example 36, (3R)-3-(2-(4-(azetidin-3-ylamino)cyclohexyl)acetamido)-2-hydroxy-3,4-dihydro-2H-benzo[e][1,2]oxaborinine-8-carboxylic acid] | < 4 µg/mL | < 4 µg/mL | < 4 µg/mL | < 100 nM | < 4 µg/mL | 8 to 32 µg/mL | < 4 µg/mL |
| N=C(N)NC1CN(C2CCC(CC(=O)N[C@H]3Cc4cccc(C(=O)O)c4OB3O)CC2)C1 (stereo partly drawn) [Example 41, (3R)-3-(2-(4-(3-guanidinoazetidin-1-yl)cyclohexyl)acetamido)-2-hydroxy-3,4-dihydro-2H-benzo[e][1,2]oxaborinine-8-carboxylic acid] | < 4 µg/mL | < 4 µg/mL | < 4 µg/mL | < 100 nM | 8 to 32 µg/mL | < 4 µg/mL | < 4 µg/mL |
| O=C(CC1CCC(O)CC1)N[C@H]1Cc2cccc(C(=O)O)c2OB1O (stereo partly drawn) [Example 47, (3R)-2-hydroxy-3-(2-(4-hydroxycyclohexyl)acetamido)-3,4-dihydro-2H-benzo[e][1,2]oxaborinine-8-carboxylic acid] | < 4 µg/mL | < 4 µg/mL | < 4 µg/mL | < 100 nM | 8 to 32 µg/mL | > 32 µg/mL | < 4 µg/mL |
